Converted amounts (≈) assume the structure as drawn.
Legend:
HSV-1 = test: HSV Antiviral (ELISA) assay; assay type: cell-based; details: HSV-1 in Vero cells
Experimental: Vero cells (ATCC #CCL-81) are plated on 96-well tissue culture plates at 3.5×10^4 cells per 100 μl tissue culture DMEM (Dulbecco's modified Eagle media) supplemented with 2% fetal bovine serum (FBS) in each well. After overnight incubation @ 37° C. (in 5% CO2) and 30 minutes prior to infection with HSV-1 (multiplicity of infection equal to 0.006), cells are either untreated, or treated with test compound (multiple concentrations) or reference standard drug control. After approximately 24 hours post-infection incubation @ 37° C. (in 5% CO2), cells are fixed for ELISA assay. The primary antibody is murine anti-HSV glycoprotein D monoclonal primary antibody and the secondary antibody is goat anti-mouse IgG linked to β-galactosidase. Thus the extent of viral replication is determined by assessing β-galactosidase activity by quantifying the generation of the 4-methyl umbelliferone fluorescent cleavage product after addition of the methyl umbelliferyl-β-D-galactoside (Sigma #M1633) substrate on a microfluorimeter (365 nm for excitation and 450 nm for emission). Antiviral activity (IC50) of the test compound is determined by comparing the flourescence obtained in absence of compound to that obtained in the presence of compound.

[1] = system: HCMV recombinant mutant virus (RV145); test: HCMV microtiter plate assay (beta-glucuronidase reporter); assay type: cell-based, Human Cytomegalovirus; details: HCMV in human foreskin fibroblasts
Description: Ninety-six well plate cultures of human foreskin fibroblasts are infected in the presence of inhibitor compound with a HCMV recombinant mutant virus whose genome contains the prokaryotic beta-glucuronidase gene (Jefferson, R. A., S. M. Burgess, and D. Hirsh. 1986. Beta-glucuronidase from Escherichia coli as a gene fusion marker. Proc. Natl. Acad. Sci. USA 83:8447-8451) whose expression is controlled by a viral promoter. An example of such a virus is RV145 (Jones, T. R., V. P. Muzithras, and Y. Gluzman. 1991. Replacement mutagenesis of the human cytomegalovirus genome: US10 and US11 gene products are nonessential. J. Virol. 65:5860-5872). Since it is under the control of a viral promoter, beta-glucuronidase expression is an indirect indicator of growth and replication of HCMV in this assay. At 96 hours post-infection, the infected cell lysates are prepared (using 50 mM sodium phosphate [pH7.0] containing 0.1% Triton X-100 and 0.1% sarkosyl) and assayed for beta-glucuronidase activity using a substrate for the enzyme which when cleaved yields either a product which can be measured colorimetrically in a spectrophotometer or fluorescently in a microfluorimeter. Examples of such substrates are p-nitrophenyl-beta-D-glucuronide and methylumbelliferylglucuronide, respectively. The presence of an antiviral compound is indicated by the reduced expression of the HCMV genome resident beta-glucuronidase gene, compared to the absence of inhibitor. […] Data from this assay generated using varying amounts of inhibitor compound is also used to estimate the IC50 of an inhibitor compound.

SMILES | IC50 (ug/ml) HSV (HSV-1) [µg/mL] | IC50 (ug/ml) HCMV [1] [µg/mL]
CN(C)c1cc(CCNC(=S)Nc2ccc(NC(=O)c3csnn3)cc2)cc(C(F)(F)F)c1 [Example 674] | >10 | 0.006 (≈ 0.0121 µM)
O=C(Nc1ccc(NC(=S)NCc2ccc(F)c(F)c2)cc1)c1ccco1 [Example 675] | >10 | 0.05 (≈ 0.129 µM)
O=C(Nc1ccc(NC(=S)NCc2ccc(F)c(F)c2)cc1)c1csnn1 [Example 676] | >10 | 0.013 (≈ 0.0321 µM)
O=C(Nc1ccc(NC(=S)NCCSc2cccc(Br)c2)cc1)c1csnn1 [Example 678] | >10 | 0.005 (≈ 0.0101 µM)
O=C(Nc1ccc(NC(=S)NCCSc2cccc(Br)c2)cc1)c1ccco1 [Example 679] | 10 (≈ 21 µM) | 0.01 (≈ 0.021 µM)
COc1ccc(CCNC(=S)Nc2ccc(NC(=O)c3csnn3)cc2)cc1Br [Example 681] | >10 | 0.02 (≈ 0.0406 µM)
COc1ccc(Br)cc1CCNC(=S)Nc1ccc(NC(=O)c2csnn2)cc1 [Example 682] | >10 | 0.006 (≈ 0.0122 µM)
O=C(Nc1ccc(NC(=S)NCCc2ccccc2Cl)cc1)c1csnn1 [Example 683] | 10 (≈ 23.9 µM) | 0.02 (≈ 0.0479 µM)
O=C(Nc1ccc(NC(=S)NCCc2ccccc2F)cc1)c1csnn1 [Example 684] | 10 (≈ 24.9 µM) | 0.005 (≈ 0.0125 µM)
O=C(Nc1ccc(NC(=S)NCCc2ccc(Cl)cc2)cc1)c1csnn1 [Example 685] | 10 (≈ 23.9 µM) | 0.006 (≈ 0.0144 µM)
O=C(Nc1ccc(NC(=S)NCCC(c2ccccc2)c2ccccc2)cc1)c1csnn1 [Example 686] | >10 | 0.007 (≈ 0.0148 µM)
O=C(Nc1ccc(NC(=S)NCCOc2cc(Cl)cc(Cl)c2)cc1)c1csnn1 [Example 688] | >10 | 0.006 (≈ 0.0128 µM)
O=C(Nc1ccc(NC(=S)NCc2ccc(F)c(Cl)c2)cc1)c1csnn1 [Example 689] | 7 (≈ 16.6 µM) | 0.007 (≈ 0.0166 µM)
CC(C)(C)c1ccc(CNC(=S)Nc2ccc(NC(=O)c3csnn3)cc2)cc1 [Example 690] | 7 (≈ 16.4 µM) | 0.004 (≈ 0.0094 µM)
Cc1cc(C)cc(CNC(=S)Nc2ccc(NC(=O)c3csnn3)cc2)c1 [Example 691] | >10 | 0.008 (≈ 0.0201 µM)
Cc1cc(CCNC(=S)Nc2ccc(NC(=O)c3csnn3)cc2)ccc1N(C)C [Example 692] | 6 (≈ 13.6 µM) | 0.04 (≈ 0.0908 µM)
O=C(Nc1ccc(NC(=S)NCCOc2ccc(Br)cc2)cc1)c1csnn1 [Example 693] | >10 | 0.03 (≈ 0.0627 µM)
O=C(Nc1ccc(NC(=S)NCCOc2ccc(I)cc2)cc1)c1csnn1 [Example 694] | 10 (≈ 19 µM) | 0.04 (≈ 0.0761 µM)
O=C(Nc1ccc(NC(=S)NCCOc2ccc(Br)cc2)cc1)c1ccco1 [Example 697] | 7 (≈ 15.2 µM) | 0.04 (≈ 0.0869 µM)
O=C(Nc1ccc(NC(=S)NCCOc2ccc(I)cc2)cc1)c1ccco1 [Example 698] | 6 (≈ 11.8 µM) | 0.04 (≈ 0.0788 µM)
O=C(Nc1ccc(NC(=S)Nc2ccc(Cl)c(Cl)c2)cc1)c1cocn1 [Example 699] | >10 | 0.016 (≈ 0.0393 µM)
O=C(Nc1ccc(NC(=S)Nc2cc(Cl)cc(Cl)c2)cc1)c1cscn1 [Example 700] | >10 | 0.004 (≈ 0.00945 µM)
O=C(Nc1ccc(NC(=S)Nc2cc(C(F)(F)F)cc(C(F)(F)F)c2)cc1)c1cscn1 [Example 701] | >10 | 0.008 (≈ 0.0163 µM)
O=C(Nc1ccc(NC(=S)Nc2cc(Cl)cc(Cl)c2)cc1)c1cocn1 [Example 702] | 4 (≈ 9.82 µM) | 0.01 (≈ 0.0246 µM)
O=C(Nc1ccc(NC(=S)NCCOc2ccc(Cl)c(Cl)c2)cc1)c1csnn1 [Example 703] | >10 | 0.007 (≈ 0.0149 µM)

SMILES | IC50 (ug/ml) HSV (HSV-1) [µg/mL] | IC50 (ug/ml) HCMV [1] [µg/mL]
O=C(Nc1ccc(NC(=S)Nc2ccc(Cl)c(Cl)c2)cc1)c1cscn1 [Example 704] | >10 | 0.006 (≈ 0.0142 µM)
O=C(Nc1ccc(NC(=S)Nc2ccc(Cl)c(C(F)(F)F)c2)cc1)c1cscn1 [Example 705] | >10 | 0.006 (≈ 0.0131 µM)
O=C(Nc1ccc(NC(=S)NCCNc2ccccc2)cc1)c1csnn1 [Example 706] | >10 | 0.04 (≈ 0.1 µM)
O=C(Nc1ccc(NC(=S)NCCc2ccc(Cl)cc2Cl)cc1)c1csnn1 [Example 707] | >10 | 0.005 (≈ 0.0111 µM)
O=C(Nc1ccc(NC(=S)NCCc2cccc(C(F)(F)F)c2)cc1)c1csnn1 [Example 708] | >10 | 0.005 (≈ 0.0111 µM)
O=C(Nc1ccc(NC(=S)NCCc2c(Cl)cccc2Cl)cc1)c1csnn1 [Example 709] | >10 | 0.05 (≈ 0.111 µM)
O=C(Nc1ccc(NC(=S)NCCSc2ccc(Cl)c(Cl)c2)cc1)c1csnn1 [Example 710] | >10 | 0.006 (≈ 0.0124 µM)
O=C(Nc1ccc(NC(=S)NCCSc2cc(C(F)(F)F)ccc2F)cc1)c1csnn1 [Example 711] | >10 | 0.004 (≈ 0.00798 µM)
CCc1ccc(CCNC(=S)Nc2ccc(NC(=O)c3csnn3)cc2)cc1 [Example 713] | >10 | 0.009 (≈ 0.0219 µM)
O=C(Nc1ccc(NC(=S)Nc2ccc(Cl)c(C(F)(F)F)c2)cc1)c1cocn1 [Example 714] | >10 | 0.02 (≈ 0.0454 µM)
O=C(Nc1ccc(NC(=S)Nc2cc(C(F)(F)F)cc(C(F)(F)F)c2)cc1)c1cocn1 [Example 715] | >10 | 0.03 (≈ 0.0632 µM)
O=C(Nc1ccc(NC(=S)NCCc2ccc(F)c(F)c2)cc1)c1csnn1 [Example 716] | >10 | 0.01 (≈ 0.0238 µM)
O=C(Nc1ccc(NC(=S)NCCc2ccc(C(F)(F)F)cc2)cc1)c1csnn1 [Example 717] | >10 | 0.003 (≈ 0.00664 µM)
O=C(Nc1ccc(NC(=S)NCCc2ccc(Cl)c(Cl)c2)cc1)c1ccco1 [Example 718] | 6 (≈ 13.8 µM) | 0.02 (≈ 0.046 µM)
O=C(Nc1ccc(NC(=S)NCCc2cc(F)cc(F)c2)cc1)c1csnn1 [Example 720] | >10 | 0.01 (≈ 0.0238 µM)
O=C(Nc1ccc(NC(=S)NCCc2ccc([N+](=O)[O-])cc2)cc1)c1csnn1 [Example 722] | >10 | 0.015 (≈ 0.035 µM)
CC(Cc1ccccc1)NC(=S)Nc1ccc(NC(=O)c2csnn2)cc1 (stereo not shown) [Example 723] | >10 | 0.03 (≈ 0.0755 µM)
O=C(Nc1ccc(NC(=S)NCc2cccc(C(F)(F)F)c2)cc1)c1csnn1 [Example 731] | >10 | 0.007 (≈ 0.016 µM)
O=C(Nc1ccc(NC(=S)NCCOc2cccc(Br)c2)cc1)c1csnn1 [Example 734] | >10 | 0.009 (≈ 0.0188 µM)
O=C(Nc1ccc(NC(=S)NCCOc2cc(C(F)(F)F)ccc2F)cc1)c1csnn1 [Example 737] | >10 | 0.005 (≈ 0.0103 µM)
O=C(Nc1ccc(NC(=S)NCCc2ccccc2F)cc1)c1ccco1 [Example 738] | >10 | 0.11 (≈ 0.287 µM)
O=C(Nc1ccc(NC(=S)Nc2ccc(Br)cc2)cc1)c1csnn1 [Example 739] | >10 | 0.02 (≈ 0.046 µM)
O=C(Nc1ccc(NC(=S)NCc2ccc(F)cc2)cc1)c1csnn1 [Example 741] | >10 | 0.02 (≈ 0.0516 µM)
O=C(Nc1ccc(NC(=S)NCc2ccc(Cl)cc2)cc1)c1csnn1 [Example 742] | >10 | 0.009 (≈ 0.0223 µM)
O=C(Nc1ccc(NC(=S)NCc2ccc(Br)cc2)cc1)c1csnn1 [Example 743] | >10 | 0.09 (≈ 0.201 µM)
